Target: T1, α3β3γ complex of BF1 (F1-ATPase from Bacillus subtilis) (Bacillus subtilis, UniProt P37808+P37809, P37808:R354W)
T1 construct: gene atpA; recombinant alpha3beta3gamma subcomplex of F1-ATPase (no delta, no epsilon), from plasmid pET21-BF1; with ATP synthase gamma chain
Experiment: tryptophan fluorescence quenching titration (ex […] nm, em […] nm), simple binding equation
Conditions: read-out: apparent Kd

T1 sequence (P37809 whole entry): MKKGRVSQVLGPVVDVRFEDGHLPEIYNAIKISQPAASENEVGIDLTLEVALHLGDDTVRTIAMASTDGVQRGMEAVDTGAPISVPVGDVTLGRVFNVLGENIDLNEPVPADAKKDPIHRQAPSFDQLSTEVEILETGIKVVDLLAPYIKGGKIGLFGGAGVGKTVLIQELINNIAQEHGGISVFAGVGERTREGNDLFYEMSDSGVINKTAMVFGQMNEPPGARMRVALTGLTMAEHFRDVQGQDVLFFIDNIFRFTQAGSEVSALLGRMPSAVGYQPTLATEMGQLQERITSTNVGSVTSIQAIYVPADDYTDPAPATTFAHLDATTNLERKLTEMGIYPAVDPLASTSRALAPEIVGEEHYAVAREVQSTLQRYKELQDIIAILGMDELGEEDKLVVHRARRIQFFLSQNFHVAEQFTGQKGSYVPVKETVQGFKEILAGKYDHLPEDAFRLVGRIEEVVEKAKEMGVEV
T1 sequence (P37810 whole entry, further chain): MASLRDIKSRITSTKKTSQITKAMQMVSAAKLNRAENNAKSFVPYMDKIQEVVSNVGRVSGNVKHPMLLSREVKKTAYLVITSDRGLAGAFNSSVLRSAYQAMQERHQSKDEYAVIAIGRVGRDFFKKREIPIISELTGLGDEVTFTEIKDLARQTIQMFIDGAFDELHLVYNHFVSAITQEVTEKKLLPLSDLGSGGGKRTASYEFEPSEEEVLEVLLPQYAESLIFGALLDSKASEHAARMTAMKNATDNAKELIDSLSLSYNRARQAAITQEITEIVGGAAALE
T1 sequence (P37808 2-502 R354W): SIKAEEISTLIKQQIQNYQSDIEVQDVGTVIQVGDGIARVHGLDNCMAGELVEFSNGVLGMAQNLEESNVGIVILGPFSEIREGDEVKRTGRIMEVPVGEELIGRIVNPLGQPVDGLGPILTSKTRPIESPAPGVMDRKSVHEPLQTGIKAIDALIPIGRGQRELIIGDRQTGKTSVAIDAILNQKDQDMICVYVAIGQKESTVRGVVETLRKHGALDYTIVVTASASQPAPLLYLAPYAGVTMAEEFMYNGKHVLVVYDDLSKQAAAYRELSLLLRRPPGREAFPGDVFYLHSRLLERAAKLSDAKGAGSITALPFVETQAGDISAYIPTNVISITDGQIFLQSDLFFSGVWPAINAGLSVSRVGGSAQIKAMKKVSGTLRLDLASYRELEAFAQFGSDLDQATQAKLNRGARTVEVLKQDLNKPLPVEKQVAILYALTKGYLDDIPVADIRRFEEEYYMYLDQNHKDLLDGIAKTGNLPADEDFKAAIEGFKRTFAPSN

`Nc1ncnc2c1ncn2[C@@H]1O[C@H](COP(=O)(O)OP(=O)(O)OP(=O)(O)O)[C@@H](O)[C@H]1O` [ATP] gave a Kd of 34.4 ± 2.9 µM.
